In patent US20130085146A1, “LIPID-DRUG FORMULATIONS AND METHODS FOR TARGETED DELIVERY OF LIPID-DRUG COMPLEXES TO LYMPHOID TISSUES” (priority 2003, published 2013):
“Also recorded” adds a separate entry of the source. Counter-ions that a name gives are not always drawn. Like-named read-outs stand apart in the source and are kept apart here.

Tests used:
[1] = Degree of drug incorporation into lipid-drug complex (size-exclusion chromatography); format: physicochemical; details: for Degree of Lipid Association (% total): drug associated with lipid membranes, pH 7.4; for incorporation into lipid-drug complexes (in words): neutral pH
Description: (§1) The mixture was rotor-evaporated under N2 and reduced pressure. Then it was resuspended in sterile phosphate-buffered saline (PBS, pH 7.4), to a final lipid concentration of 50 mM, and homogenized with a probe sonicator until a uniform particle size of about 50 nm to about 80 nm diameter was reached. Sonication is preferably done until sonicated unilamellar vesicles that are stable at their minimum diameter are obtained. […] The size and zeta potential (surface potential at hydrodynamic plane) of the lipid-drug complex was monitored using a Malvern Zetasizer 5000 operating at photon correlation spectroscopy mode and electrophoretic mode, respectively. […] The rest of the preparation procedure remains the same.
The degree of drug incorporation into the lipid-drug complex was determined by subjecting a small fraction of the preparation to size-exclusion chromatography using a Biogel A-0.5 M media (1×10 cm). […] By analyzing the amount of fraction in the lipid-associated complex, and free form with respect to the total amount loaded onto the column, the percentage of drug association was determined. (Lian, T. and Ho, R. J. Y., Recent trend and progress in liposome drug delivery systems; an invited minireview, J Pharm Sci 90:667-680 [2001]). To determine pH-dependent drug dissociation from the lipid-drug complex, the lipid-drug complex (originally prepared in pH 7.4 and free of unincorporated drug) can be incubated at, e.g., pH 7, 6, 5.5, 5, 4, 3.5 for 30 min. Subsequently, the mixture can be subjected to the degree of drug incorporation analysis described above. For animal studies, the drug-lipid complex formulations were further analyzed for sterility and endotoxin contamination. To ensure sterility and prevent underestimation of endotoxin that binds to lipids, the lipid-drug complex preparations were subjected to a blood agar culture test for 7 days at 37° C. for detection of microbial contamination.
Subsequently, the % lipid-association was determined by separating free from lipid-associated drug by size-exclusion column chromatography. Data expressed were means of duplicate preparations for indicated pH value.

[2] = Particle size of lipid-drug complex (photon correlation spectroscopy); format: physicochemical; details: drug associated with lipid membranes, pH 7.4
Description: as §1

[3] = cited from earlier work

## CC(C)OC(=O)OCOP(=O)(CO[C@H](C)Cn1cnc2c(N)ncnc21)OCOC(=O)OC(C)C.O=C(O)/C=C/C(=O)O [Viread ®, 9-[(R)-2-[[bis[[(isopropoxycarbonyl)oxy]methoxy]phosphinyl]methoxy]propyl]adenine fumarate (1:1)]
[1]
  Degree of Lipid Association (% total): 4.2 ± 0.7 % total
[2]
  Size in Diameter: 60 ± 10 nm

## O=C(O)CN(CC(=O)O)Cc1cc2c(cc1O)Oc1cc(O)c(CN(CC(=O)O)CC(=O)O)cc1C21OC(=O)c2ccccc21 [calcein]
[1]
  incorporation into lipid-drug complexes (in words): completely or nearly completely

## CC(C)c1nc(CN(C)C(=O)N[C@H](C(=O)N[C@@H](Cc2ccccc2)C[C@H](O)[C@H](Cc2ccccc2)NC(=O)OCc2cncs2)C(C)C)cs1 [Ritonavir]
[1]; DSPC:mPE-DSPE formulation
  % Associated with lipid-drug nanoparticles: Ritonavir: 100 ± 1.0%

## Cc1c(O)cccc1C(=O)N[C@@H](CSc1ccccc1)[C@H](O)CN1C[C@H]2CCCC[C@H]2C[C@H]1C(=O)NC(C)(C)C (relative stereo) [Nelfinavir, [3S-[2(2S*, 3S*), 3a,4ab,8ab]]-N-(1,1-dimethylethyl)decahydro-2-[2-hydroxy-3-[(3-hydroxy-2-methylbenzoyl)amino]-4-(phenylthio)butyl]-3-isoquinolinecarboxamide mono-methanesulfonate (salt)]
[1]; DSPC:mPE-DSPE formulation
  % Associated with lipid-drug nanoparticles: Nelfinavir: 100 ± 9.8%
[1]
  Degree of Lipid Association (% total): 100.5 ± 9.8 % total
  incorporation into lipid-drug complexes (in words): incorporate nearly completely; also recorded: high degree of lipid association
[2]
  Size in Diameter: 123 ± 16 nm
[3]
  solubility in methanol, ethanol, isopropanol and propylene glycol: freely soluble
[3]; pH<4
  solubility in water: slightly soluble

## C[C@H](Cn1cnc2c(N)ncnc21)OCP(=O)(O)O [Tenofovir]
[1]
  incorporation into lipid-drug complexes (in words): quite low efficiency
[1]; listed as tenofovir
  incorporation into lipid-drug complexes (in words): much lower efficiency
[3]; neutral pH
  solubility in water: soluble in water
[3]; neutral pH, listed as tenofovir
  solubility in water: quite soluble

## CC(C)(C)NC(=O)[C@@H]1C[C@@H]2CCCC[C@@H]2CN1C[C@@H](O)[C@H](Cc1ccccc1)NC(=O)[C@H](CC(N)=O)NC(=O)c1ccc2ccccc2n1 [Saquinavir, N-tert-butyl-decahydro-2-[2(R)-hydroxy-4-phenyl-3(S)-[[N-(2-quinolylcarbonyl)-L-asparaginyl]-amino]butyl]-(4aS,8aS)-isoquinoline-3 (S)-carboxamide]
[1]; DSPC:mPE-DSPE formulation
  % Associated with lipid-drug nanoparticles: Saquinavir: 98.9 ± 7.5%
[1]
  Degree of Lipid Association (% total): 98.8 ± 7.5 % total
  incorporation into lipid-drug complexes (in words): incorporate nearly completely; also recorded: high degree of lipid association
[2]
  Size in Diameter: 159 ± 36 nm

## Cc1cccc(C)c1OCC(=O)N[C@@H](Cc1ccccc1)[C@@H](O)C[C@H](Cc1ccccc1)NC(=O)[C@H](C(C)C)N1CCCNC1=O [Lopinavir]
[1]; DSPC:mPE-DSPE formulation
  % Associated with lipid-drug nanoparticles: Lopinavir: 100 ± 0.9%
